Tests used:
[1] = test system: AMARE; assay: Post-emergence herbicidal action against AMARE; format: in vivo, Amaranthus retroflexus; conditions: 20 g/ha, visual assessment about 3 weeks after treatment, 100% = plants have died, 0% = like control plants
How it was run: (§1)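 Sandy loam, greenhouse; treatment 2–3 weeks after sowing, one-leaf stage. Aqueous suspension or emulsion from WP/EC sprayed on foliage (600–800 l/ha, 0.2% wetting agent). Readout: visual % action, ~3 weeks.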

[2] = test system: SETVI; assay: Pre-emergence herbicidal action against SETVI; format: in vivo, Setaria viridis
How it was run: (§2)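 Seeds sown in sandy loam, soil-covered; compound sprayed on soil surface pre-emergence. Application: WP/EC, 600–800 l/ha, 0.2% wetting agent. Readout: visual % damage at 3 weeks.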

[3] = test system: MATIN; assay: Pre-emergence herbicidal action against MATIN; format: in vivo, Matricaria inodora
How it was run: as §2

[4] = test system: PHBPU; assay: Pre-emergence herbicidal action against PHBPU; format: in vivo, Pharbitis purpurea; conditions: dosage 80 g/ha
How it was run: as §2

[5] = test system: DIGSA; assay: Pre-emergence herbicidal action against DIGSA; format: in vivo, Digitaria sanguinalis
How it was run: as §2

[6] = test system: ECHCG; assay: Post-emergence herbicidal action against ECHCG; format: in vivo, Echinochloa crus-galli
How it was run: as §1

[7] = test system: POLCO; assay: Pre-emergence herbicidal action against POLCO; format: in vivo, Polygonum convolvulus; conditions: dosage 80 g/ha
From the text: Seeds of monocotyledonous and dicotyledonous weed plants and crop plants are laid out in sandy loam soil in wood-fiber pots and covered with soil. The compounds of the invention, formulated in the form of wettable powders (WP) or as emulsion concentrates (EC), are then applied to the surface of the covering soil in the form of an aqueous suspension or emulsion at a water application rate equivalent to 600 to 800 l/ha, with addition of 0.2% wetting agent. After the treatment, the pots are placed in a greenhouse and kept under good growth conditions for the trial plants. The damage to the test plants is scored visually after a test period of 3 weeks by comparison with untreated controls (herbicidal activity in percent (%): 100% activity=the plants have died, 0% activity=like control plants). […] The tables below illustrate, in an illustrative manner, the post-emergence herbicidal action of the compounds of the invention, the herbicidal activity being stated in percent.

[8] = test system: VIOTR; assay: Pre-emergence herbicidal action against VIOTR; format: in vivo, Viola tricolor; conditions: dosage 80 g/ha
How it was run: as §2

[9] = test system: PHBPU; assay: Post-emergence herbicidal action against PHBPU; format: in vivo, Pharbitis purpurea; conditions: dosage 20 g/ha
How it was run: as §1

[10] = test system: ECHCG; assay: Pre-emergence herbicidal action against ECHCG; format: in vivo, Echinochloa crus-galli; conditions: 80 g/ha
How it was run: as §2

[11] = test system: ALOMY; assay: Pre-emergence herbicidal action against ALOMY; format: in vivo, Alopecurus myosuroides; conditions: 80 g/ha, pre-emergence, scored visually after 3 weeks vs untreated controls (100% = plants have died, 0% = like control plants)
How it was run: as §2

[12] = test system: AMARE; assay: Pre-emergence herbicidal action against AMARE; format: in vivo, Amaranthus retroflexus
How it was run: as §2

[13] = test system: VIOTR; assay: Post-emergence herbicidal action against VIOTR; format: in vivo, Viola tricolor; conditions: 20 g/ha
How it was run: as §1

[14] = test system: VERPE; assay: Pre-emergence herbicidal action against VERPE; format: in vivo, Veronica persica
How it was run: as §2

[15] = test system: ALOMY; assay: Post-emergence herbicidal action against ALOMY; format: in vivo, Alopecurus myosuroides; conditions: dosage 20 g/ha, visual assessment about 3 weeks after treatment vs untreated controls
How it was run: as §1

[16] = test system: ABUTH; assay: Post-emergence herbicidal action against ABUTH; format: in vivo, Abutilon theophrasti; conditions: dosage 20 g/ha, visual assessment about 3 weeks after treatment vs untreated controls
How it was run: as §1

[17] = test system: ABUTH; assay: Pre-emergence herbicidal action against ABUTH; format: in vivo, Abutilon theophrasti; conditions: for Pre-emergence action against ABUTH (herbicidal activity): 80 g/ha, scored visually after 3 weeks vs untreated controls (100% = plants have died, 0% = like control plants); for Pre-emergence action against ABUTH (herbicidal activity in percent): dosage 20 g/ha, scored visually after 3 weeks vs untreated controls, 100% = plants have died, 0% = like control plants
How it was run: as §2

[18] = test system: VERPE; assay: Post-emergence herbicidal action against VERPE; format: in vivo, Veronica persica; conditions: 20 g/ha
How it was run: as §1

[19] = test system: DIGSA; assay: Post-emergence herbicidal action against DIGSA; format: in vivo, Digitaria sanguinalis; conditions: 20 g/ha
How it was run: as §1

[20] = test system: SETVI; assay: Post-emergence herbicidal action against SETVI; format: in vivo, Setaria viridis; conditions: dosage 20 g/ha
How it was run: as §1

[21] = 20 g/ha, scored visually after 3 weeks vs untreated controls, 100% = plants have died, 0% = like control plants
[22] = 80 g/ha, scored visually after 3 weeks vs untreated controls (100% = plants have died, 0% = like control plants)

SMILES	Post-emergence action at 20 g/ha against AMARE in % [1]	Pre-emergence action against SETVI in % ([2]; dosage 80 g/ha)	Pre-emergence action against MATIN in % ([3]; dosage 20 g/ha)	Pre-emergence action against MATIN in % ([3]; dosage 80 g/ha)	Pre-emergence action against PHBPU in % [4]	Pre-emergence action against DIGSA in % ([5]; dosage 80 g/ha)	Post-emergence action against ECHCG in % ([6]; dosage 20 g/ha)	Pre-emergence action against POLCO in % [7]	Pre-emergence action against VIOTR in % [8]	Post-emergence action against PHBPU in % [9]	Pre-emergence action against ECHCG in % [10]	Pre-emergence action against ALOMY (herbicidal activity) [11]	Pre-emergence action against AMARE in % [12, 21]	Pre-emergence action against AMARE in % [12, 22]	Post-emergence action against ABUTH in % [16]	Pre-emergence action against ABUTH (herbicidal activity) [17]	Pre-emergence action against ABUTH (herbicidal activity in percent) [17]	Pre-emergence action against DIGSA in % ([5]; dosage 20 g/ha)	Post-emergence action against ECHCG in % ([6]; dosage 5 g/ha)	Post-emergence action against DIGSA [19]	also measured
CCn1nnnc1NC(=O)c1ccc(C(F)(F)F)c(C(=O)NCC2CCCO2)c1Cl (stereo not drawn) [Example 2-141]	80%	100%	80%	90%	80%	90%	80%	80%	90%	80%	80%	90%	100%	100%	–	–	–	–	–	–	Pre-emergence action against SETVI in % ([2]; dosage 20 g/ha): 90%
CCn1nnnc1NC(=O)c1ccc(C(F)F)c(C(=O)NCCOC)c1Cl [Example 2-156]	90%	100%	100%	100%	–	100%	90%	90%	100%	90%	100%	100%	100%	100%	90%	100%	100%	100%	90%	80%	Post-emergence action against VIOTR in % [13]: 80%; Pre-emergence action against VERPE in % ([14]; dosage 20 g/ha): 80%; Pre-emergence action against VERPE in % ([14]; dosage 80 g/ha): 100%; Post-emergence action against ALOMY in % [15]: 90%; Post-emergence action against VERPE in % [18]: 90%; Post-emergence action against SETVI in % [20]: 80%
CCCNC(=O)c1c(C(F)F)ccc(C(=O)Nc2nnc(C)o2)c1Cl [Example 6-259]	100%	100%	90%	100%	80%	100%	90%	90%	80%	–	100%	80%	100%	100%	80%	100%	90%	100%	80%	90%	Post-emergence action against SETVI in % [20]: 90%
